Columns and labels:
[1] = system: F/Q indicator duplex of SEQ ID NO: 75 and SEQ ID NO: 76; assay: Kinetic strand displacement assay (fluorescence quenching); assay type: binding
From the text: This version of the assay is based on the displacement of a shorter strand within an indicator duplex by a longer strand. […] Again, a duplex of first and second sequences, as described above, is used, but in this assay, the strands differ in length, thus creating a single stranded overhang region. In a fluorescence quenching assay format, for example, the “F” strand is generally longer than the “Q” strand. In most cases, a minimum overhang region of about 4-20 nucleotides is effective to initiate strand displacement. Because a longer region will increase the rate of displacement, and it is generally desirable in the assay to reduce the rate of displacement, so as to facilitate measurement, this length of 4-20 nucleotides is generally preferred. A length of 5-7 nucleotides is particularly preferred.
The first and second strands are allowed to form a duplex in the absence of the ligand. In the present example, the “F” and “Q” groups are thus in proximity, giving a minimum level (when Q is a quenching group) of fluorescence. The displacing strand is added, and the rate of displacement, as indicated by an increase (or other change) in fluorescence over time, is observed (see FIG. 2). The experiment is then repeated in the presence of increasing amounts of ligand. A strongly binding ligand will stabilize the initial duplex and thus slow the rate of displacement. It is also expected that a ligand binding closer to the overhang site will also have a greater effect on inhibiting displacement.
The displacing strand, having SEQ ID NO: 77 (Table VI), is added, and the increase in fluorescence is observed over time. […] About 0.08 μM drug was effective to detectably slow the rate of displacement, and at 1.25-2.5 μM, the increase at 2 hrs was reduced to about 40%.
A mixture was formed of 60 nM of a fluorescein labeled 28-nucleotide strand having SEQ ID NO: 75 (Table VI) and 90 nM of a Dabcyl™-labeled 21-nucleotide quenching strand (SEQ ID NO: 76) in a buffer containing 20 mM HEPES, pH 7.5, 0.1 mM EDTA, and 30 mM NaCl. The control experiment contained no added drug; for subsequent experiment, increasing amounts of netropsin were added. To start the displacement reaction, the displacing strand (SEQ ID NO: 77) was added at concentrations of 35 nM to 60 nM. The fluorescence of the system was then monitored every 5 minutes for 90 to 120 minutes.
The initial rate of the displacement reaction was calculated from plots of fluorescence vs. time as the slope of the fluorescence curve from 0 to 60 minutes.
Additional experiments were carried out in which specific, unlabeled DNA competitor duplexes, whose sequences are shown in Table VII, were added to the assay mixture.

[2] = system: CCGCGCC (GC-rich) DNA duplex (SEQ ID NO: 6); assay: SPA (scintillation proximity) direct binding assay, G/C-rich indicator duplex
From the text: This technology can be applied to studies of ligand binding as disclosed herein. Example 13, below, describes the use of the assay in a high throughput screening method, using the SPA detection system. In this example, the first oligonucleotide is labeled with biotin, and is then tightly bound to streptavidin-coated SPA beads via the strong biotin/streptavidin interaction. These beads are impregnated with scintillant. The second oligonucleotide is labeled with a weak β-emitter, such as ^3H or ^33P. The radioactive second oligonucleotide is mixed with a solution of the beads under conditions at which the first and second oligonucleotides exist primarily as single strands, as described above. The signal will thus be low, as the oligonucleotides are non-hybridized. When ligand is added, the duplex form is stabilized, and the increased proximity of the radioactive isotope (e.g., ^3H, ^33P) in the second oligonucleotide causes the bead to which the first oligonucleotide is bound to scintillate. A signal thus indicates the presence of an effective binding ligand molecule; test sequences giving higher signals indicate the relative preference for different sequences.
The data in Table II compare raw signal counts from SPA assays using three different oligonucleotides and three concentrations (0, 100, and 500 nM) of the DNA binding drug distamycin. The oligonucleotides used were G/C-rich (CCGCGCC; SEQ ID NO: 6), A/T-rich (CTTTATTATTTT; SEQ ID NO: 2), or mixed sequence (GCGGTATTT; SEQ ID NO: 12) DNA duplexes. One strand of the duplex was synthesized with a 5′-biotin label, the other strand was labeled with ^33P, as described in Example 13.
Indicator oligonucleotides as shown in Table 1 were used in this assay, as shown in Table II and FIGS. 4A-E. One strand of each duplex was labeled with biotin at the 5′-end, and the complementary strand was 3′-labeled with ^33P. […] In the absence of ligand, and under these conditions, the oligonucleotides exist in single-stranded conformation. As a result, the oligonucleotide containing the radioactive label is not in close proximity to the SPA bead, and the light given off by the beads is low, i.e., at background. As a duplex-stabilizing ligand is added, the radioactive ^33P is brought into close proximity to the SPA bead, and the light emitted from the SPA bead increases. Accordingly, each of five known DNA-binding compounds was added in increasing concentrations, and the effect on scintillation count was observed, giving the results shown in FIGS. 4A-E.

Row | CPM ([2]; 100 nM Distamycin, 10 mM Na+) | CPM ([2]; 100 nM Distamycin, 50 mM Na+) | CPM ([2]; 500 nM Distamycin, 10 mM Na+) | CPM ([2]; 500 nM Distamycin, 50 mM Na+) | SMILES | effect of unlabeled competitor duplex on rate of displacement in presence of drug (FIG. 16) ([1]; A/T rich competitor duplex SEQ ID NO: 78) | increase in fluorescence at 2 hrs ([1]; at 1.25-2.5 μM netropsin, about 175% in absence of drug) | drug concentration effective to detectably slow the rate of displacement (FIG. 14) ([1]; displacing strand SEQ ID NO: 77) | drug concentration giving notable decrease in initial rate of displacement (FIG. 15) ([1]; initial rate = slope 0 to 60 minutes)
1 |  |  |  |  | Cn1cc(NC(=O)c2cc(NC(=O)CN=C(N)N)cn2C)cc1C(=O)NCCC(=N)N [Netropsin, netropsin] | rate of displacement is increased by increasing amounts of the A/T rich competitor duplex | about 40% | About 0.08 μM | about 0.08 μM
2 | 699 CPM | 889 CPM | 744 CPM | 666 CPM | Cn1cc(NC(=O)c2cc(NC(=O)c3cc(NC=O)cn3C)cn2C)cc1C(=O)NCCC(=N)N [Distamycin, distamycin] |  |  |  | 
